Laboratory results reported in patent US6914045B2, “Glycopeptide antibiotics” (Wyeth Holdings Corporation, priority 2001, dated 2005).
Values after ≈ are worked out from the molar mass of the structure shown.

Assays:
Test in all cases: in vitro antibacterial evaluation, MIC by broth dilution
Assay type in all cases: cell-based
Streptococcus sp. = conditions: broth dilution, 18 hours at 35° C.; for MIC Streptococcus pneumoniae (ATCC 6301): strain ATCC 6301; for MIC Streptococcus pneumoniae (GC 1894): strain GC 1894; for MIC Streptococcus pyogenes (GC 4563): strain GC 4563; for MIC Streptococcus agalactiae (GC 4564): strain GC 4564; for MIC Streptococcus pneumoniae (GC 4565): strain GC 4565
In short: (§1)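 Step 1: dilute antibiotic across 64-0.06 μg/mL in Muller-Hinton II […]. Step 2: inoculate at 5×10^5 CFU/mL.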

Staphylococcus sp. = conditions: broth dilution, 18 hours at 35° C.; for MIC Staphylococcus aureus (GC 1131): strain GC 1131
In short: as §1

Escherichia coli = test system: Escherichia coli
In short: as §1

Enterococcus sp. = conditions: broth dilution, 18 hours at 35° C.; for MIC Enterococcus faecalis (ATCC 29212): strain ATCC 29212; for MIC Enterococcus faecalis (GC 2242): strain GC 2242; for MIC Enterococcus faecium (GC 2243): strain GC 2243; for MIC Enterococcus faecalis (GC 2691): strain GC 2691; for MIC Enterococcus faecalis (GC 3059): strain GC 3059; for MIC Enterococcus faecalis (GC 4552): strain GC 4552; for MIC Enterococcus faecalis (GC 4553): strain GC 4553; for MIC Enterococcus faecalis (GC 4554): strain GC 4554; for MIC Enterococcus faecium (GC 4556): strain GC 4556; for MIC Enterococcus faecium (GC 4557): strain GC 4557; for MIC Enterococcus avium (GC 4558): strain GC 4558; for MIC Enterococcus faecalis (GC 6189): strain GC 6189
In short: as §1

MIC Streptococcus pneumoniae (ATCC 6301) (Streptococcus sp.; inoculum 5×10^5 CFU/mL): <0.12 µg/mL | MIC Streptococcus pneumoniae (GC 1894) (Streptococcus sp.; inoculum 5×10^5 CFU/mL): <0.12 µg/mL | MIC Streptococcus pyogenes (GC 4563) (Streptococcus sp.; inoculum 5×10^5 CFU/mL): 0.5 µg/mL (≈ 0.339 µM) | MIC Streptococcus agalactiae (GC 4564) (Streptococcus sp.; inoculum 5×10^5 CFU/mL): <0.12 µg/mL | MIC Streptococcus pneumoniae (GC 4565) (Streptococcus sp.; inoculum 5×10^5 CFU/mL): <0.12 µg/mL | MIC Streptococcus pneumoniae (ATCC 6301) (Streptococcus sp.): <0.12 µg/mL | MIC Streptococcus pneumoniae (GC 1894) (Streptococcus sp.): <0.12 µg/mL | MIC Streptococcus pyogenes (GC 4563) (Streptococcus sp.): 0.5 µg/mL (≈ 0.339 µM) | MIC Streptococcus agalactiae (GC 4564) (Streptococcus sp.): <0.12 µg/mL | MIC Streptococcus pneumoniae (GC 4565) (Streptococcus sp.): <0.12 µg/mL | MIC Staphylococcus aureus (GC 1131) (Staphylococcus sp.; inoculum 5×10^5 CFU/mL): 1 µg/mL (≈ 0.678 µM) | MIC Staphylococcus aureus (ATCC 29213) (Staphylococcus sp.; strain ATCC 29213): 1 µg/mL (≈ 0.678 µM) | MIC Staphylococcus aureus (GC 1131) (Staphylococcus sp.): 1 µg/mL (≈ 0.678 µM) | MIC Staphylococcus aureus (GC 3051) (Staphylococcus sp.; strain GC 3051): 1 µg/mL (≈ 0.678 µM) | MIC Staphylococcus aureus (GC 3053) (Staphylococcus sp.; strain GC 3053): 1 µg/mL (≈ 0.678 µM) | MIC Staphylococcus aureus (GC 4541) (Staphylococcus sp.; strain GC 4541): 1 µg/mL (≈ 0.678 µM) | MIC Staphylococcus aureus (GC 4542) (Staphylococcus sp.; strain GC 4542): 1 µg/mL (≈ 0.678 µM) | MIC Staphylococcus aureus-SMITH (GC 4543) (Staphylococcus sp.; strain GC 4543): 1 µg/mL (≈ 0.678 µM) | MIC Staphylococcus aureus (GC 4544) (Staphylococcus sp.; strain GC 4544): 2 µg/mL (≈ 1.36 µM) | MIC Staphylococcus aureus (GC 4545) (Staphylococcus sp.; strain GC 4545): 1 µg/mL (≈ 0.678 µM) | MIC Coagulase Negative Staphylococcus (GC 4547) (Staphylococcus sp.; strain GC 4547): 2 µg/mL (≈ 1.36 µM) | MIC Coagulase Negative Staphylococcus (GC 4548) (Staphylococcus sp.; strain GC 4548): 0.5 µg/mL (≈ 0.339 µM) | MIC Coagulase Negative Staphylococcus (GC 4549) (Staphylococcus sp.; strain GC 4549): 0.5 µg/mL (≈ 0.339 µM) | MIC Coagulase Negative Staphylococcus (GC 4551) (Staphylococcus sp.; strain GC 4551): 1 µg/mL (≈ 0.678 µM) | MIC Escherichia coli (ATCC 25922) (Escherichia coli; strain ATCC 25922, 18 hours at 35° C.): 64 µg/mL (≈ 43.4 µM) | MIC Escherichia coli (GC 4559) (Escherichia coli; strain GC 4559, 18 hours at 35° C.): 16 µg/mL (≈ 10.9 µM) | MIC Escherichia coli (GC 4560) (Escherichia coli; strain GC 4560, 18 hours at 35° C.): 0.5 µg/mL (≈ 0.339 µM) | MIC Enterococcus faecalis (ATCC 29212) (Enterococcus sp.; inoculum 5×10^5 CFU/mL): 2 µg/mL (≈ 1.36 µM) | MIC Enterococcus faecalis (GC 2242) (Enterococcus sp.; inoculum 5×10^5 CFU/mL): 2 µg/mL (≈ 1.36 µM) | MIC Enterococcus faecium (GC 2243) (Enterococcus sp.; inoculum 5×10^5 CFU/mL): 2 µg/mL (≈ 1.36 µM) | MIC Enterococcus faecalis (GC 2691) (Enterococcus sp.; inoculum 5×10^5 CFU/mL): 2 µg/mL (≈ 1.36 µM) | MIC Enterococcus faecalis (GC 3059) (Enterococcus sp.; inoculum 5×10^5 CFU/mL): 2 µg/mL (≈ 1.36 µM) | MIC Enterococcus faecalis (GC 4552) (Enterococcus sp.; inoculum 5×10^5 CFU/mL): 2 µg/mL (≈ 1.36 µM) | MIC Enterococcus faecalis (GC 4553) (Enterococcus sp.; inoculum 5×10^5 CFU/mL): 2 µg/mL (≈ 1.36 µM) | MIC Enterococcus faecalis (GC 4554) (Enterococcus sp.; inoculum 5×10^5 CFU/mL): 2 µg/mL (≈ 1.36 µM) | MIC Enterococcus faecium (GC 4556) (Enterococcus sp.; inoculum 5×10^5 CFU/mL): 2 µg/mL (≈ 1.36 µM) | MIC Enterococcus faecium (GC 4557) (Enterococcus sp.; inoculum 5×10^5 CFU/mL): 1 µg/mL (≈ 0.678 µM) | MIC Enterococcus avium (GC 4558) (Enterococcus sp.; inoculum 5×10^5 CFU/mL): 2 µg/mL (≈ 1.36 µM) | MIC Enterococcus faecalis (GC 6189) (Enterococcus sp.; inoculum 5×10^5 CFU/mL): 2 µg/mL (≈ 1.36 µM) | MIC Enterococcus faecalis (ATCC 29212) (Enterococcus sp.): 2 µg/mL (≈ 1.36 µM) | MIC Enterococcus faecalis (GC 2242) (Enterococcus sp.): 2 µg/mL (≈ 1.36 µM) | MIC Enterococcus faecium (GC 2243) (Enterococcus sp.): 2 µg/mL (≈ 1.36 µM) | MIC Enterococcus faecalis (GC 2691) (Enterococcus sp.): 2 µg/mL (≈ 1.36 µM) | MIC Enterococcus faecalis (GC 3059) (Enterococcus sp.): 2 µg/mL (≈ 1.36 µM) | MIC Enterococcus faecalis (GC 4552) (Enterococcus sp.): 2 µg/mL (≈ 1.36 µM) | MIC Enterococcus faecalis (GC 4553) (Enterococcus sp.): 2 µg/mL (≈ 1.36 µM) | MIC Enterococcus faecalis (GC 4554) (Enterococcus sp.): 2 µg/mL (≈ 1.36 µM) | MIC Enterococcus faecium (GC 4556) (Enterococcus sp.): 2 µg/mL (≈ 1.36 µM) | MIC Enterococcus faecium (GC 4557) (Enterococcus sp.): 1 µg/mL (≈ 0.678 µM) | MIC Enterococcus avium (GC 4558) (Enterococcus sp.): 2 µg/mL (≈ 1.36 µM) | MIC Enterococcus faecalis (GC 6189) (Enterococcus sp.): 2 µg/mL (≈ 1.36 µM)
SMILES: CSc1ccc(C2OCC3OC(OC4C(CO)OC(Oc5ccc(CC6NC(=O)C(C(C)c7ccccc7)NC(=O)CNC(=O)C(CO)NC(=O)C(C(O)C7CNC(=N)N7C7OC(CO)C(O)C(O)C7O)NC(=O)C(C(O)C7CNC(=N)N7)NC6=O)cc5)C(O)C4O)C(O)C(O)C3O2)cc1[N+](=O)[O-] (stereo not shown) [Example 168]
MIC Staphylococcus haemolyticus (GC 4546) (Staphylococcus sp.; strain GC 4546): 0.5 µg/mL (≈ 0.339 µM)
